The target of one series is GLP-1R (Homo sapiens, UniProt P43220). Kind of series: GLP-1R activation: cAMP increase in CHO cells stably expressing GLP-1R. The class given is cell-based. Conditions: read-out: EC50.
Series [1] in a line: Microsomal stability, human liver microsomes (predicted hepatic clearance). Conditions: predicted from in vitro microsomal stability data.
The mark [2] stands for this setting: cAMP increase, CHO cells stably expressing GLP-1R, 10 point dose response, 30 minutes incubation.

The structures appear in SMILES notation. Read-outs that look alike come from different tables or passages of the source.

GLP-1R, sequence (P43220 24-463): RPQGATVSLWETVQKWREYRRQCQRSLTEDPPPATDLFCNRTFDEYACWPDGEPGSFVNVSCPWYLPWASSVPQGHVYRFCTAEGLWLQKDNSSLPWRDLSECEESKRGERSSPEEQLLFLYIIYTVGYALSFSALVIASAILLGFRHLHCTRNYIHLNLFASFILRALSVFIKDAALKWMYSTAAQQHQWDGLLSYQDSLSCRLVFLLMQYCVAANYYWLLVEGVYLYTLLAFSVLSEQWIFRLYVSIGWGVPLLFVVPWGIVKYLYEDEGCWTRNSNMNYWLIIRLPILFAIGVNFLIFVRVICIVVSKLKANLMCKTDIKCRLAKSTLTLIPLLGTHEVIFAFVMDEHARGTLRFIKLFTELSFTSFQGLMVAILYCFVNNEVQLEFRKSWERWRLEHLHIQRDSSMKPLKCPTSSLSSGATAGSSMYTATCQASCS

Consider `N#CCC1(Cn2c(Cc3ccc(-c4ccnc(OCc5ccc(Cl)cc5F)n4)cc3F)nc3ccc(C(=O)O)cc32)CC1` [Example 79, 2-(4-(2-((4-chloro-2-fluorobenzyl)oxy)pyrimidin-4-yl)-2-fluorobenzyl)-1-((1-(cyanomethyl)cyclopropyl)methyl)-1H-benzo[d]imidazole-6-carboxylic acid], for which, at GLP-1R (setting [2]), the EC50 (in general, the concentration giving half of the maximal effect) stood at 1.04 nM. In series [1], the “Predicted Hepatic Clearance (Pred. Cl.)” value is 8.83 mL/min/kg.

`COCCn1c(Cc2ccc(-c3conc3OCc3ccc(C#N)cc3F)cc2F)nc2ccc(C(=O)O)cc21` [Example 80, 2-(4-(3-((4-cyano-2-fluorobenzyl)oxy)isoxazol-4-yl)-2-fluorobenzyl)-1-(2-methoxyethyl)-1H-benzo[d]imidazole-6-carboxylic acid]: at GLP-1R (setting [2]), the EC50 was found to be 2630 nM. Also, the “Predicted Hepatic Clearance (Pred. Cl.)” value in series [1] is 5.17 mL/min/kg.

`COCCn1c(Cc2ccc(-c3nc(OCc4ccc(C#N)cc4F)ccc3C#N)cc2F)nc2ccc(C(=O)O)cc21` [Example 81, 2-(4-(3-cyano-6-((4-cyano-2-fluorobenzyl)oxy)pyridin-2-yl)-2-fluorobenzyl)-1-(2-methoxyethyl)-1H-benzo[d]imidazole-6-carboxylic acid]: at GLP-1R (setting [2]), the EC50 stood at 291 nM. Further, the “Predicted Hepatic Clearance (Pred. Cl.)” value in series [1] is 10.7 mL/min/kg.

In the case of `COCCn1c(Cc2ccc(-c3ccc(N)c(OCc4ccc(C#N)cc4F)c3)cc2F)nc2ccc(C(=O)O)cc21` [Example 82, 2-((4′-amino-3′-((4-cyano-2-fluorobenzyl)oxy)-3-fluoro-[1,1′-biphenyl]-4-yl)methyl)-1-(2-methoxyethyl)-1H-benzo[d]imidazole-6-carboxylic acid], at GLP-1R (setting [2]), the EC50 is 264 nM. Besides, the “Predicted Hepatic Clearance (Pred. Cl.)” value in series [1] is 3.67 mL/min/kg.

For the molecule `COCCn1c(Cc2ccc(-c3ccnc(OCc4ccc(C#N)cc4F)n3)cc2F)nc2ccc(C(=O)O)cc21` [Example 83, 2-(4-(2-((4-cyano-2-fluorobenzyl)oxy)pyrimidin-4-yl)-2-fluorobenzyl)-1-(2-methoxyethyl)-1H-benzo[d]imidazole-6-carboxylic acid], the EC50 at GLP-1R (setting [2]) is 29.3 nM. In series [1], the “Predicted Hepatic Clearance (Pred. Cl.)” value was <1.83 mL/min/kg.

On to `COCCn1c(Cc2ccc(-c3nc(OCc4ccc(C#N)cc4F)cs3)cc2F)nc2ccc(C(=O)O)cc21` [Example 84, 2-(4-(4-((4-cyano-2-fluorobenzyl)oxy)thiazol-2-yl)-2-fluorobenzyl)-1-(2-methoxyethyl)-1H-benzo[d]imidazole-6-carboxylic acid], for which the EC50 at GLP-1R (setting [2]) was 54.3 nM. For the same molecule, the “Predicted Hepatic Clearance (Pred. Cl.)” value in series [1] is 6.33 mL/min/kg.

Regarding `COCCn1c(Cc2ccc(-c3cc(C#N)cc(OCc4ccc(C#N)cc4F)n3)cc2F)nc2ccc(C(=O)O)cc21` [Example 85, 2-(4-(4-cyano-6-((4-cyano-2-fluorobenzyl)oxy)pyridin-2-yl)-2-fluorobenzyl)-1-(2-methoxyethyl)-1H-benzo[d]imidazole-6-carboxylic acid], on GLP-1R (setting [2]), the EC50 worked out at 4.9 nM. Moreover, the “Predicted Hepatic Clearance (Pred. Cl.)” value in series [1] is 3.67 mL/min/kg.

In the case of `COCCn1c(Cc2ccc(-c3ccc(C#N)c(OCc4ccc(C#N)cc4F)n3)cc2F)nc2ccc(C(=O)O)cc21` [Example 86, 2-(4-(5-cyano-6-((4-cyano-2-fluorobenzyl)oxy)pyridin-2-yl)-2-fluorobenzyl)-1-(2-methoxyethyl)-1H-benzo[d]imidazole-6-carboxylic acid], the EC50 at GLP-1R (setting [2]) stood at 274 nM. Also, in series [1], the “Predicted Hepatic Clearance (Pred. Cl.)” value was <1.83 mL/min/kg.

`COCCn1c(Cc2ccc(-c3ccc(F)c(OCc4ccc(C#N)cc4F)n3)cc2F)nc2ccc(C(=O)O)cc21` [Example 87, 2-(4-(6-((4-cyano-2-fluorobenzyl)oxy)-5-fluoropyridin-2-yl)-2-fluorobenzyl)-1-(2-methoxyethyl)-1H-benzo[d]imidazole-6-carboxylic acid]: at GLP-1R (setting [2]), the EC50 turned out to be 5.66 nM. Moreover, the “Predicted Hepatic Clearance (Pred. Cl.)” value in series [1] is <1.83 mL/min/kg.

In the case of `COCCn1c(Cc2ccc(-c3csnc3OCc3ccc(C#N)cc3F)cc2F)nc2ccc(C(=O)O)cc21` [Example 88, 2-(4-(3-((4-cyano-2-fluorobenzyl)oxy)isothiazol-4-yl)-2-fluorobenzyl)-1-(2-methoxyethyl)-1H-benzo[d]imidazole-6-carboxylic acid], the EC50 on GLP-1R (setting [2]) stood at 296 nM. Besides, the “Predicted Hepatic Clearance (Pred. Cl.)” value in series [1] is 8.5 mL/min/kg.

Take `COCCn1c(Cc2ccc(-n3ccc(OCc4ccccc4)n3)cc2F)nc2ccc(C(=O)O)cc21` [Example 89, 2-(4-(3-(benzyloxy)-1H-pyrazol-1-yl)-2-fluorobenzyl)-1-(2-methoxyethyl)-1H-benzo[d]imidazole-6-carboxylic acid]: the EC50 on GLP-1R (setting [2]) was determined as 1650 nM. Also, in series [1], the “Predicted Hepatic Clearance (Pred. Cl.)” value was 8.83 mL/min/kg.

In the case of `COCCn1c(Cc2ccc(-c3cc(C(F)(F)F)cc(OCc4ccc(C#N)cc4F)n3)cc2F)nc2ccc(C(=O)O)cc21` [Example 90, 2-(4-(6-((4-cyano-2-fluorobenzyl)oxy)-4-(trifluoromethyl)pyridin-2-yl)-2-fluorobenzyl)-1-(2-methoxyethyl)-1H-benzo[d]imidazole-6-carboxylic acid], the EC50 at GLP-1R (setting [2]) was 72.4 nM. The “Predicted Hepatic Clearance (Pred. Cl.)” value in series [1] is 10 mL/min/kg.

Consider `COCCn1c(Cc2ccc(-c3nc(OCc4ccc(C#N)cc4F)ccc3F)cc2F)nc2ccc(C(=O)O)cc21` [Example 91, 2-(4-(6-((4-cyano-2-fluorobenzyl)oxy)-3-fluoropyridin-2-yl)-2-fluorobenzyl)-1-(2-methoxyethyl)-1H-benzo[d]imidazole-6-carboxylic acid], for which, on GLP-1R (setting [2]), the EC50 turned out to be 2630 nM. For the same molecule, the “Predicted Hepatic Clearance (Pred. Cl.)” value in series [1] is 5 mL/min/kg.

`N#Cc1ccc(COc2cccc(-c3ccc(Cc4nc5ncc(C(=O)O)cc5n4CC4(CF)CC4)c(F)c3)n2)c(F)c1` [Example 92, 2-(4-(6-((4-cyano-2-fluorobenzyl)oxy)pyridin-2-yl)-2-fluorobenzyl)-1-((1-(fluoromethyl)cyclopropyl)methyl)-1H-imidazo[4,5-b]pyridine-6-carboxylic acid]: the EC50 on GLP-1R came out at 2.64 nM. Besides, in series [1], the “Predicted Hepatic Clearance (Pred. Cl.)” value is 3.17 mL/min/kg.

As for `COc1cc(Cl)ccc1COc1nccc(-c2ccc(Cc3nc4ccc(C(=O)O)cc4n3CC3(CC#N)CC3)cc2F)n1` [Example 93, 2-(4-(2-((4-chloro-2-methoxybenzyl)oxy)pyrimidin-4-yl)-3-fluorobenzyl)-1-((1-(cyanomethyl)cyclopropyl)methyl)-1H-benzo[d]imidazole-6-carboxylic acid], on GLP-1R (setting [2]), the EC50 amounted to 0.28 nM. Besides, the “Predicted Hepatic Clearance (Pred. Cl.)” value in series [1] was 14.5 mL/min/kg.

Consider `N#Cc1ccc(COc2cccc(-c3ccc(Cc4nc5ncc(C(=O)O)cc5n4CC4(CF)CC4)c(F)c3)n2)c(F)c1` [Example 94, 2-(4-(6-((4-cyano-2-fluorobenzyl)oxy)pyridin-2-yl)-2-fluorobenzyl)-1-((1-(fluoromethyl)cyclopropyl)methyl)-1H-imidazo[4,5-b]pyridine-6-carboxylic acid], for which the 50% effective concentration (EC50) at GLP-1R (setting [2]) stood at 0.66 nM. In addition, the “Predicted Hepatic Clearance (Pred. Cl.)” value in series [1] is <1.83 mL/min/kg.

`N#CCC1(Cn2c(Cc3ccc(-c4ccc(F)c(OCc5ccc(C#N)cc5F)n4)c(F)c3)nc3ccc(C(=O)O)cc32)CC1` [Example 95, 2-(4-(6-((4-cyano-2-fluorobenzyl)oxy)-5-fluoropyridin-2-yl)-3-fluorobenzyl)-1-((1-(cyanomethyl)cyclopropyl)methyl)-1H-benzo[d]imidazole-6-carboxylic]: at GLP-1R (setting [2]), the EC50 is 0.26 nM. Further, the “Predicted Hepatic Clearance (Pred. Cl.)” value in series [1] was 6.7 mL/min/kg.

For `COCCn1c(Cc2ccc(-c3cccc(OCc4ccncc4OC)n3)c(F)c2)nc2ccc(C(=O)O)cc21` [Example 96, 2-(3-fluoro-4-(6-((3-methoxypyridin-4-yl)methoxy)pyridin-2-yl)benzyl)-1-(2-methoxyethyl)-1H-benzo[d]imidazole-6-carboxylic acid], the 50% effective concentration (EC50) on GLP-1R (setting [2]) is 30.9 nM. The “Predicted Hepatic Clearance (Pred. Cl.)” value in series [1] is 17.8 mL/min/kg.

Turning to `COCCn1c(Cc2ccc(-c3cc(C(=O)O)cc(OCc4ccc(C#N)cc4F)n3)cc2F)nc2ccc(C(=O)O)cc21` [Example 97, 2-(4-(4-carboxy-6-((4-cyano-2-fluorobenzyl)oxy)pyridin-2-yl)-2-fluorobenzyl)-1-(2-methoxyethyl)-1H-benzo[d]imidazole-6-carboxylic acid], the EC50 on GLP-1R (setting [2]) came out at 2780 nM. Moreover, the “Predicted Hepatic Clearance (Pred. Cl.)” value in series [1] is 3.5 mL/min/kg.

On to `COCCn1c(Cc2ccc(-c3cccc(Oc4cccc5ccccc45)n3)cc2F)nc2ccc(C(=O)O)cc21` [Example 98, 2-(2-fluoro-4-(6-(naphthalen-1-yloxy)pyridin-2-yl)benzyl)-1-(2-methoxyethyl)-1H-benzo[d]imidazole-6-carboxylic acid], for which the EC50 on GLP-1R (setting [2]) was 913 nM. Further, the “Predicted Hepatic Clearance (Pred. Cl.)” value in series [1] was 7.33 mL/min/kg.

Turning to `COCCn1c(Cc2ccc(-c3cccc(OCc4ccc(C#N)cc4F)n3)c(Cl)c2)nc2ccc(C(=O)O)cc21` [Example 101, 2-(3-chloro-4-(6-((4-cyano-2-fluorobenzyl)oxy)pyridin-2-yl)benzyl)-1-(2-methoxyethyl)-1H-benzo[d]imidazole-6-carboxylic acid], on GLP-1R (setting [2]), the EC50 was determined as 25.9 nM. The “Predicted Hepatic Clearance (Pred. Cl.)” value in series [1] was 6.7 mL/min/kg.

As to `COCCn1c(Cc2cnc(-c3cccc(OCc4ccc(C#N)cc4F)n3)cn2)nc2ccc(C(=O)O)cc21` [Example 102, 2-((5-(6-((4-cyano-2-fluorobenzyl)oxy)pyridin-2-yl)pyrazin-2-yl)methyl)-1-(2-methoxyethyl)-1H-benzo[d]imidazole-6-carboxylic acid], on GLP-1R (setting [2]), the EC50 is 56.5 nM. For the same molecule, the “Predicted Hepatic Clearance (Pred. Cl.)” value in series [1] was 5.17 mL/min/kg.

As for `COCCn1c(Cc2c(F)cc(-c3ccnnc3OCc3ccc(C#N)cc3F)cc2F)nc2ccc(C(=O)O)cc21` [Example 103, 2-[[4-[3-[(4-cyano-2-fluoro-phenyl)methoxy]pyridazin-4-yl]-2,6-difluoro-phenyl]methyl]-3-(2-methoxyethyl)benzimidazole-5-carboxylic acid], the EC50 at GLP-1R (setting [2]) worked out at 4980 nM. In addition, the “Predicted Hepatic Clearance (Pred. Cl.)” value in series [1] was 5.17 mL/min/kg.

(Values after patent US11702404B2, “GLP-1R modulating compounds” (priority 2019, dated 2023).)
